The record followed here is US20240279232A1, “USE OF SUBSTITUTED 5-(4-METHYL-6-PHENYL-4H-BENZO[F]IMIDAZO[1,5-A][1,4] DIAZEPIN-3-YL)-1,2,4-O[…] THE TREATMENT OF INFLAMMATORY CONDITIONS” (priority 2021, published 2024).

Like-named read-outs stand apart in the source and are kept apart here.

A word on the inhibition: it is the change of the read-out against control, counted positive when it falls. By Ki is commonly meant the dissociation constant of the complex between target and ligand, obtained from inhibition or displacement.

The target of data set [1] is T1, KOR (κ opioid receptor) (Homo sapiens, UniProt P41145).
T1 construct: expressed in transfected cells; host or cells: HEK293 (stably transfected)
T1 sequence (P41145 whole entry): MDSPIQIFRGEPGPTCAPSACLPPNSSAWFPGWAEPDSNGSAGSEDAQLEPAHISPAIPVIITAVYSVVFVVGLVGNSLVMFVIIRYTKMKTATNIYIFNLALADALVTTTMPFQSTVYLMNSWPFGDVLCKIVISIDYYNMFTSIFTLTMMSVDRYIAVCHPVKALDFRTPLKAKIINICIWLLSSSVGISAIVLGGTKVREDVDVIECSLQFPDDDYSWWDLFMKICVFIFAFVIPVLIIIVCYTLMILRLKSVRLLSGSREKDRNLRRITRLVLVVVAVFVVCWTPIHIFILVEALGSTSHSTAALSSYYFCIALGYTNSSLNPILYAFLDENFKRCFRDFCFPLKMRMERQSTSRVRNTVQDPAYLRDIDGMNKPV
In words: KOR radioligand binding ([3H]-U69593, HEK293 cell homogenates). The following applies: for inhibition at 10 µM: Percent inhibition at 10,000 nM.

In data set [2] the target is T2, MOR (μ opioid receptor) (Homo sapiens, UniProt P35372).
T2 construct: expressed in transfected cells; host or cells: HEK293
T2 sequence (P35372 whole entry, species assumed): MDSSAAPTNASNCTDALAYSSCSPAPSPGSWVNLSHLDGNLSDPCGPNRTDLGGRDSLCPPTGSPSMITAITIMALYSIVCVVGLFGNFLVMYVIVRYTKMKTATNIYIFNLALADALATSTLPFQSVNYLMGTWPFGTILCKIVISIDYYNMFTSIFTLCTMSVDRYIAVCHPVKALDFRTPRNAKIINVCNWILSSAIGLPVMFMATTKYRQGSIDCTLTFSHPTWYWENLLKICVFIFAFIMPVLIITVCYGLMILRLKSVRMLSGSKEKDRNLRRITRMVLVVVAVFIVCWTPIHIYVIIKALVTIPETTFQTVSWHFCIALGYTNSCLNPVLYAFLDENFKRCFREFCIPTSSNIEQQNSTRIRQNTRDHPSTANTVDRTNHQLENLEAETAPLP
Description: MOR radioligand binding ([3H]-DAMGO, HEK293 cell homogenates). To be noted: Percent inhibition at 10,000 nM; [3H]-DAMGO.

In data set [3] the target is T3, DOR (δ opioid receptor) (Homo sapiens, UniProt P41143).
T3 construct: expressed in transfected cells; host or cells: HEK293
T3 sequence (P41143 whole entry): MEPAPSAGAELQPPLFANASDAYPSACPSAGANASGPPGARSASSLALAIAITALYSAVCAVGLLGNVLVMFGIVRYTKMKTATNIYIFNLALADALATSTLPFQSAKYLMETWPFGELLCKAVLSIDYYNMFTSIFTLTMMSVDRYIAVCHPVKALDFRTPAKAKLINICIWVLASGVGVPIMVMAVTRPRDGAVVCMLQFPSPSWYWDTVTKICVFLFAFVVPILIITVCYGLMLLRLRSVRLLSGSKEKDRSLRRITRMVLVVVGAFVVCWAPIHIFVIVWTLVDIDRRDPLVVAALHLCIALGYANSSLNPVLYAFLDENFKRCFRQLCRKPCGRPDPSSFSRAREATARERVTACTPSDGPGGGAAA
In words: DOR radioligand binding ([3H]-DADLE, HEK293 cell homogenates). To be noted: Percent inhibition at 10,000 nM; [3H]-DADLE.

Data set [4] deals with RAW macrophages. In words: NO production (Griess assay), LPS/IFNγ-activated RAW264.7 macrophages. The class given is cell-based, mouse. To be noted: Mus musculus, Macrophage, 24 h. Background: Nitrite, measured by Griess reagent, commonly stands in for NO production.
Data set [5] has as its system Mouse microglia. In words: Cell viability (CellTiter-Glo), mouse microglia. Type of data set: cell-based. The following applies: 50 μM; for Cell viability (%) Mouse microglia 50 μM: CellTiter-Glo. In short, it runs like this:
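Mouse microglia (1×10^6 cells/mL) activated with 50 ng/ml LPS plus 150 U/mL IFNγ, incubated with compounds ~24 h at 37° C. Viability of remaining cells read by CellTiter-Glo luminescence after supernatant removal for Griess NO assay; […].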

Data set [6] relates to HEK293. Description: Viability assay (CellTiter-Glo), HEK293. Type of data set: cell-based, human. To be noted: for Cell viability (%) HEK293 120 μM: CellTiter-Glo. A general note: In ATP-based viability assays light output follows the ATP content of the culture.
In data set [7] the test system is HEPG2. In words: Viability assay (CellTiter-Glo), HEPG2. To be noted: for Cell viability (%) HEPG2 120 μM: CellTiter-Glo. Type of data set: cell-based, human.
Setting [8] is: concentration-dependent, [3H]-U69593, read-out: KOR (Ki).

Regarding `C[C@H]1N=C(c2ccccc2F)c2cc(C3CC3)ccc2-n2cnc(C(=O)N(C)C)c21` [GL-III-70], the inhibition at 10 µM in data set [1] ([3H]-U69593) worked out at 68%; in data set [2], 0%; in data set [3] it was 50%; in data set [4] it was 2 ± 2%. In addition, in data set [1] (setting [8]), the Ki is 800 nM. In data set [5], the “Cell viability (%) Mouse microglia 50 μM” value was 86 ± 2%. Further, the “Cell viability (%) HEK293 120 μM” value in data set [6] turned out to be 86 ± 12%. In data set [7], the “Cell viability (%) HEPG2 120 μM” value was 100 ± 5%.
For the molecule `C#Cc1ccc2c(c1)C(c1ccccc1F)=N[C@H](C)c1c(-c3nc(C)no3)ncn1-2` [MP-IV-004], the Ki in data set [1] was found to be 444 nM. The inhibition at 10 µM in data set [1] ([3H]-U69593) stood at 86%; in data set [2] it was 7%; in data set [3], 10%; in data set [4], 0%. The inhibition at 50 µM in data set [4] is 51 ± 7%. In data set [5], the “Cell viability (%) Mouse microglia 50 μM” value came to 100 ± 5%. In addition, the “Cell viability (%) HEK293 120 μM” value in data set [6] worked out at 40 ± 8%. Moreover, in data set [7], the “Cell viability (%) HEPG2 120 μM” value stood at 100 ± 4%.
Consider `C#Cc1ccc2c(c1)C(c1ccccc1F)=N[C@H](C)c1c(C(=O)NC(C)C)ncn1-2` [GL-III-66], for which the inhibition at 10 µM in data set [1] ([3H]-U69593) turned out to be 63%; in data set [2], 0%; in data set [3], 0%; in data set [4], 6 ± 4%. Also, in data set [1] (setting [8]), the Ki was found to be 233 nM. The “Cell viability (%) Mouse microglia 50 μM” value in data set [5] is given as 85 ± 15%. The “Cell viability (%) HEK293 120 μM” value in data set [6] is reported as 46 ± 4%. In addition, in data set [7], the “Cell viability (%) HEPG2 120 μM” value came out at 86 ± 8%.
Regarding `C[C@@H]1N=C(c2ccccc2F)c2cc(Br)ccc2-n2cnc(-c3cnco3)c21` [GL-III-76], the Ki in data set [1] was found to be 221 nM. The inhibition at 10 µM in data set [1] ([3H]-U69593) worked out at 83%; in data set [2], 3%; in data set [3], 0%; in data set [4], 0%. Moreover, the “Cell viability (%) Mouse microglia 50 μM” value in data set [5] worked out at 80 ± 2%. The “Cell viability (%) HEK293 120 μM” value in data set [6] worked out at 59 ± 4%. Besides, in data set [7], the “Cell viability (%) HEPG2 120 μM” value turned out to be 90 ± 6%.
As to `C#Cc1ccc2c(c1)C(c1ccccc1F)=N[C@@H](C)c1c(-c3cnco3)ncn1-2` [GL-III-78], in data set [1], the Ki came out at 451 nM. For the same molecule, the inhibition at 10 µM was 74% in data set [1] ([3H]-U69593), 10% in data set [2], 9% in data set [3] and 0% in data set [4]. For the same molecule, the “Cell viability (%) Mouse microglia 50 μM” value in data set [5] worked out at 79 ± 6%. The “Cell viability (%) HEK293 120 μM” value in data set [6] was determined as 56 ± 8%. For the same molecule, the “Cell viability (%) HEPG2 120 μM” value in data set [7] was found to be 100 ± 15%.
With `CCc1noc(-c2ncn3c2[C@@H](C)N=C(c2ccccc2F)c2cc(C4CC4)ccc2-3)n1` [GL-IV-03, (R)-5-(8-Cyclopropyl-6-(2-fluorophenyl)-4-methyl-4H-benzo[f]imidazo[1,5-a][1,4]diazepin-3-yl)-3-ethyl-1,2,4-oxadiazole], the Ki in data set [1] worked out at 232 nM. The inhibition at 10 µM in data set [1] ([3H]-U69593) is 91%; in data set [2], 25%; in data set [3] it was 67%; in data set [4] it was 75%. Moreover, the “Cell viability (%) Mouse microglia 50 μM” value in data set [5] was 100 ± 5%. For the same molecule, the “toxicity at 50 μM (in words)” value in data set [5] (microglia) is given as “no significant toxicity”. In addition, the “Cell viability (%) HEK293 120 μM” value in data set [6] came out at 47 ± 5%. Besides, the “toxicity at 120 μM (in words)” value was “some cytotoxicity” in data set [6] (HEK293, 120 μM) and “to a lesser degree” in data set [7] (HepG2, 120 μM). In addition, the “Cell viability (%) HEPG2 120 μM” value in data set [7] came out at 39 ± 5%.
For `CCOC(=O)c1ncn2c1[C@@H](C)N=C(c1ccccc1F)c1cc(C3CC3)ccc1-2` [GL-III-42], the Ki in data set [1] is 174 nM. Further, the inhibition at 10 µM is 86% in data set [1] ([3H]-U69593), 0% in data set [2], 13% in data set [3] and 0% in data set [4]. In addition, the “Cell viability (%) Mouse microglia 50 μM” value in data set [5] came out at 82 ± 10%. In data set [6], the “Cell viability (%) HEK293 120 μM” value was found to be 62 ± 11%. Further, in data set [7], the “Cell viability (%) HEPG2 120 μM” value is listed as 100 ± 8%.
